This note sets out measurements from patent US6583309B1 (University of Medicine and Dentistry of New Jersey, priority 1999, dated 2003).

The assay deals with TAR RNA. The assay can be described thus: In vitro binding of resin-bound compounds to TAR RNA (OD260 of unbound RNA). The following applies: in vitro assay; compounds of formula I on TentaGel beads incubated with TAR RNA overnight at 4° C. in TK buffer; read-out: Kd (nM), binding constants. Also on record: species or system HIV. The protocol:
Binding of compounds of formula I and V to TAR RNA was measured by evaluating their inhibition of TAR-TAT complex formation in the presence of increasing levels of the compound to be tested. The compounds of formula I were tested in an in vitro assay; the compounds of formula V were tested in an in vivo assay.
The TAR RNA used corresponds to the minimal sequence required for TAT responsiveness in vivo. This 29-residue oligonucleotide has the sequence: 5′-[…]-3′ (SEQ ID NO.: 1). TAR RNA was prepared by in vitro transcription. A “top strand” single-stranded DNA oligomer having the sequence 5′-TAATACGACTCACTATAG-3′ (SEQ ID NO.: 2) was annealed to a “bottom strand” single-stranded DNA template having the following sequence: 3′-[…]-5′ (SEQ ID NO.: 3), thereby generating a double-stranded region corresponding to a promoter sequence recognized by T7 RNA polymerase. Transcription was carried out in transcription buffer (40 mM Tris-HCl, pH 8.1, 1 mM spermidine, 0.01% Triton®X-100, 5 mM dithiothreitol, 4 mM each of ATP, GTP, CTP, and UTP at 37° C. for 4 to 5 hours. Reactions were performed in a volume of 0.02 ml containing 8 pmole of template (top strand annealed to bottom strand) and 40 to 60 units of T7 RNA polymerase. Transcription was terminated by adding an equal volume of loading buffer (9M urea, 1 mmol EDTA, 0.1M bromophenol blue in 1XTBE buffer; TBE is 45 mmol trisborate at pH 8). Product RNA was purified by electrophoresis through a denaturing 20% polyacrylamide gel containing 8M urea. RNA was extracted from the gel, precipitated, dissolved in dithylpyrocarbonate-treated water, and stored at −20° C. until used.
In vitro assay conditions: Compounds AA-DU were synthesized on TentaGel S—NH2 (4.6 mmole). All Fmoc-amino acids were purchased from Bachem (Torrance, Calif.). 1-hydroxybenzotriazole (HOBT) and diisopropylcarbodiimide (DIPCDI) were obtained from Aldrich Chemical Co., Milwalkee, Wis. Piperidine and trifluoroacetic acid were purchased from Applied Biosystems Division, Perkin-Elmer. Compounds AA-DU were synthesized manually according to standard solid-phase peptide synthesis protocols. Coupling efficiencies of residues at each step were monitored by Kaiser test. Deprotection of trimer peptides was carried out in 10% water in trifluoroacetic acid (1 mL) for 16 hours at room temperature. After filtration of solvents, the resin was washed with water (1 mL×4), DMF (1 mL×4), dichloromethane (1 mL×4), and dried under reduced pressure. The compounds attached to the resin (10 beads) were placed in an Eppendorf tube and washed with TK buffer ([…]). The beads were suspended in TK buffer ([…]) and incubated with TAR RNA ([…]) overnight at 4° C. The suspension was centrifuged and the supernatant containing unbound RNA was transferred to a cuvette for OD260 measurements. The UV absorbance was measured by a Shimadzu UV-1601 spectrometer. Equilibrium concentrations of RNA were determined from these measurements. Given that the initial concentrations of ligand and RNA are known, and assuming simple bimolecular receptor/substrate binding, dissociation constant (KD) was calculated from straightforward equations.

Turning to `N=C(N)NCCC[C@H](N)COC(=O)N(CCCCCN)CC(=O)N[C@@H](CCCCN)COC(N)=O` [Compound DI, Carbamic acid 6-amino-2-{2-[(2-amino-5-guanidino-pentyloxycarbonyl)-(5-amino-pentyl)-amino]-acetylamino}-hexyl ester], the Kd was found to be 235 nM.
For `NCCCC[C@H](COC(N)=O)NC(=O)OC[C@H](CCCCN)NC(=O)[C@@H](N)CCCCN` [Compound AL, Carbamic acid 6-amino-2-[6-amino-2-(2,6-diamino-hexanoylamino)-hexyloxycarbonylamino]-hexyl ester], the Kd worked out at 2720 nM.
Consider `NCCCCNCC(=O)N[C@@H](CCCCN)COC(=O)N[C@H](CCCCN)COC(N)=O` [Compound AP, Carbamic acid 6-amino-2-{6-amino-2-[2-(4-amino-butylamino)-acetylamino]-hexyloxycarbonylamino}-hexyl ester], for which the Kd was found to be 1490 nM.
For `NCCCCCCCNCC(=O)N(CCCCCCCN)CC(=O)N[C@H](CCCCN)COC(N)=O` [Compound BP, Carbamic acid 6-amino-2-(2-{(7-amino-heptyl)-[2-(7-amino-heptylamino)-acetyl]-amino}-acetylamino)-hexyl ester], the equilibrium dissociation constant (Kd) was 2190 nM.
As for `NCCCCCN(CC(=O)N[C@@H](CCCCN)COC(N)=O)C(=O)OC[C@H](N)CCCCN` [Compound DC, Carbamic acid 6-amino-2-{2-[(5-amino-pentyl)-(2,6-diamino-hexyloxycarbonyl)-amino]-acetylamino}-hexyl ester], the equilibrium dissociation constant (Kd) came out at 5110 nM.
Turning to `NCCCC[C@H](N)COC(=O)N(CCCCN)CC(=O)N[C@H](CCCCN)COC(N)=O` (stereo in doubt) [Compound AS, Carbamic acid 6-amino-2-{2-[(4-amino-butyl)-(2,6-diamino-hexyloxycarbonyl)-amino]-acetylamino}-hexyl ester], the dissociation constant (Kd) worked out at 147 nM.
As to `NCCCC[C@H](COC(N)=O)NC(=O)OC[C@@H](CCCCN)NC(=O)[C@H](N)CCCCN` [Compound AD, Carbamic acid 6-amino-2-[6-amino-2-(2,6-diamino-hexanoylamino)-hexyloxycarbonylamino]-hexyl ester], the dissociation constant (Kd) was determined as 2080 nM.
Turning to `NCCCCCCCNCC(=O)N(CCCCN)CC(=O)N[C@@H](CCCCN)COC(N)=O` [Compound CX, Carbamic acid 6-amino-2-(2-{(4-amino-butyl)-[2-(7-amino-heptylamino)-acetyl]-amino}-acetylamino)-hexyl ester], the dissociation constant Kd came out at 256 nM.
On to `NCCCC[C@@H](COC(N)=O)NC(=O)OC[C@H](CCCCN)NC(=O)[C@@H](N)CCCCN` (stereo in doubt) [Compound CL, Carbamic acid 6-amino-2-[6-amino-2-(2,6-diamino-hexanoylamino)-hexyloxycarbonylamino]-hexyl ester], for which the dissociation constant Kd stood at 130 nM.
The same measure for `N=C(N)NCCC[C@H](N)COC(=O)N[C@@H](CCCCN)COC(=O)N[C@H](CCCCN)COC(N)=O` [Compound AQ, Carbamic acid 6-amino-2-[6-amino-2-(2-amino-5-guanidino-pentyloxycarbonylamino)-hexyloxycarbonylamino]-hexyl ester]: 2080 nM; for `NCCCCCNCC(=O)N[C@@H](CCCCN)COC(=O)N[C@H](CCCCN)COC(N)=O` [Compound AN, Carbamic acid 6-amino-2-{6-amino-2-[2-(5-amino-pentylamino)-acetylamino]-hexyloxycarbonylamino}-hexyl ester]: 183 nM.
As to `N=C(N)NCCC[C@H](N)COC(=O)N(CCCCN)CC(=O)N[C@H](CCCCN)COC(N)=O` [Compound AZ, Carbamic acid 6-amino-2-{2-[(4-amino-butyl)-(2-amino-5-guanidino-pentyloxycarbonyl)-amino]-acetylamino}-hexyl ester], the dissociation constant (Kd) turned out to be 147 nM.
The same measure for `NCCCCCCCNCC(=O)N[C@H](CCCCN)COC(=O)N[C@@H](CCCCN)COC(N)=O` [Compound CF, Carbamic acid 6-amino-2-{6-amino-2-[2-(7-amino-heptylamino)-acetylamino]-hexyloxycarbonylamino}-hexyl ester]: 567 nM.
Take `N=C(N)NCCC[C@H](N)COC(=O)N[C@H](CCCCN)COC(=O)N[C@@H](CCCCN)COC(N)=O` [Compound CH, Carbamic acid 6-amino-2-[6-amino-2-(2-amino-5-guanidino-pentyloxycarbonylamino)-hexyloxycarbonylamino]-hexyl ester]: the Kd was 865 nM.
As to `NCCCC[C@@H](N)COC(=O)N[C@@H](CCCCN)COC(=O)N[C@@H](CCCCN)COC(N)=O` [Compound CK, Carbamic acid 6-amino-2-[6-amino-2-(2,6-diamino-hexyloxycarbonylamino)-hexyloxycarbonylamino]-hexyl ester], the Kd was 1110 nM.
On to `NCCCC[C@@H](COC(N)=O)NC(=O)CN(CCCCN)C(=O)[C@H](N)CCCCN` [Compound CV, Carbamic acid 6-amino-2-{2-[(4-amino-butyl)-(2,6-diamino-hexanoyl)-amino]-acetylamino}-hexyl ester], for which the Kd was 567 nM.
Take `NCCCCCN(CC(=O)N[C@@H](CCCCN)COC(N)=O)C(=O)OC[C@H](N)CCC(N)=O` [Compound DJ, Carbamic acid 6-amino-2-{2-[(2-amino-4-carbamoyl-butoxycarbonyl)-(5-amino-pentyl)-amino]-acetylamino}-hexyl ester]: the dissociation constant Kd is 603 nM.
For `NCCCCCCCN(CC(=O)N[C@@H](CCCCN)COC(N)=O)C(=O)OC[C@H](N)CCC(N)=O` [Compound DS, Carbamic acid 6-amino-2-{2-[(2-amino-4-carbamoyl-butoxycarbonyl)-(7-amino-heptyl)-amino]-acetylamino}-hexyl ester], the dissociation constant Kd was 3150 nM.
On to `NCCCCCCCN(CC(=O)N[C@@H](CCCCN)COC(N)=O)C(=O)OC[C@@H](N)CCCCN` [Compound DK, Carbamic acid 6-amino-2-{2-[(7-amino-heptyl)-(2,6-diamino-hexyloxycarbonyl)-amino]-acetylamino}-hexyl ester], for which the Kd turned out to be 1110 nM.
The same measure for `NCCCCNCC(=O)N[C@H](CCCCN)COC(=O)N[C@H](CCCCN)COC(N)=O` [Compound AG, Carbamic acid 6-amino-2-{6-amino-2-[2-(4-amino-butylamino)-acetylamino]-hexyloxycarbonylamino}-hexyl ester]: 403 nM; for `NCCCCCCCN(CC(=O)N[C@@H](CCCCN)COC(N)=O)C(=O)[C@H](N)CCCCN` [Compound DN, Carbamic acid 6-amino-2-{2-[(7-amino-heptyl)-(2,6-diamino-hexanoyl)-amino]-acetylamino}-hexyl ester]: 678 nM.
Turning to `NCCCC[C@@H](COC(N)=O)NC(=O)OC[C@H](CCCCN)NC(=O)[C@H](N)CCCCN` [Compound CM, Carbamic acid 6-amino-2-[6-amino-2-(2,6-diamino-hexanoylamino)-hexyloxycarbonylamino]-hexyl ester], the equilibrium dissociation constant (Kd) came out at 491 nM.
For `NCCCC[C@H](N)COC(=O)N[C@@H](CCCCN)COC(=O)N[C@@H](CCCCN)COC(N)=O` (stereo in doubt) [Compound CJ, Carbamic acid 6-amino-2-[6-amino-2-(2,6-diamino-hexyloxycarbonylamino)-hexyloxycarbonylamino]-hexyl ester], the Kd was 1260 nM.
The same measure for `NCCCCCCCN(CC(=O)N[C@H](CCCCN)COC(N)=O)C(=O)[C@@H](N)CCCCN` [Compound BM, Carbamic acid 6-amino-2-{2-[(7-amino-heptyl)-(2,6-diamino-hexanoyl)-amino]-acetylamino}-hexyl ester]: 403 nM; for `NCCCC[C@H](COC(N)=O)NC(=O)[C@H](CCCCN)NC(=O)[C@@H](N)CCCCN` (stereo in doubt) [Compound BV, Carbamic acid 6-amino-2-[6-amino-2-(2,6-diamino-hexanoylamino)-hexanoylamino]-hexyl ester]: 403 nM.
